Common to all, as to assay type: in vivo
Series [1] has as its system Digitaria sanguinalis (DIGSA). Kind of series: Herbicidal post-emergence action. Particulars: 320 g/ha, assessed after ca. 3 weeks. Put shortly:
(§1)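 Weeds grown in sandy loam in the greenhouse were sprayed post-emergence at the single-leaf stage, 2 to 3 weeks after sowing, with WP or EC formulations in water plus 0.5% additive at 600 l water/ha, at rates of 1280 g/ha or 320 g/ha. Damage was scored visually after ca. 3 weeks against untreated controls (0% = as control, 100% = plants dead).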

The subject of series [2] is Avena fatua (AVEFA). Description: Herbicidal post-emergence action. As to conditions: assessed after ca. 3 weeks. The essentials: as §1
Series [3] concerns Echinochloa crus-galli (ECHCG). Description: Herbicidal post-emergence action. Particulars: assessed after ca. 3 weeks. The essentials: as §1
For series [4], the system named is Alopecurus myosuroides (ALOMY). Kind of series: Herbicidal post-emergence action. Particulars: assessed after ca. 3 weeks. Put shortly: as §1
Series [5] concerns Brassica napus (BRSNW). Kind of series: Post-emergence effects on crop plants. As to conditions: application rate 320 g/ha, crop plant Brassica napus (BRSNW). An excerpt: (§2) Seeds of mono- and dicotyledonous weed plants and crop plants were sown, in plastic or organic planting pots, in sandy loam, covered with soil and grown in a greenhouse under controlled growth conditions. 2 to 3 weeks after sowing, the test plants were sprayed in the single-leaf stage. The compounds according to the invention, formulated in form of wettable powders (WP) or as emulsifiable concentrates (EC), were sprayed onto the green plant parts as aqueous suspension or emulsion, with the addition of 0.5% of an additive, at an application rate of 600 1 of water/ha (converted). The test plants were placed in the greenhouse for ca. 3 weeks under optimum growth conditions, and then the effect of the preparations was assessed visually in comparison with untreated controls (herbicidal effect in percent (%): 100% effect=plants have died off, 0% effect=as control plants).
(§3) Tables D1 to D3 below show the effects of selected compounds of the general formula (I) according to table 1 on various crop plants and an application rate corresponding to 320 g/ha or below obtained by the experimental procedure mentioned above in biology section B.

Series [6] concerns Glycine max (GLXMA). Description: Post-emergence effects on crop plants. As to conditions: 320 g/ha, crop plant.
Description: as §2, §3

Series [7] concerns Zea Mays (ZEAMX). Description: Post-emergence effects on crop plants. As to conditions: crop plant.
Description: as §2, §3

Series [8] concerns Brassica napus (BRSNW). Kind of series: Pre-emergence effects on crop plants. Particulars: 320 g/ha, crop plant. An excerpt:
(§4) Seeds of mono- and dicotyledonous weed plants and crop plants were sown, in plastic or organic planting pots, in sandy loam and covered with soil. The compounds according to the invention, formulated in the form of wettable powders (WP) or as emulsifiable concentrates (EC), were applied to the surface of the covering soil as aqueous suspension or emulsion, with the addition of 0.5% of an additive, at an application rate of 600 1 of water/ha (converted).
(§5) Following treatment, the pots were placed in a greenhouse and kept under optimum growth conditions for the test plants. The visual grading of the damage to the test plants was carried out after ca. 3 weeks in comparison to untreated controls (herbicidal effect in percent (%): 100% effect=plants have died off, 0% effect=as control plants).
(§6) Tables C1 to C3 below show the effects of selected compounds of the general formula (I) according to table 1 on various crop plants and an application rate corresponding to 320 g/ha or below obtained by the experimental procedure mentioned above in biology section A.

Series [9] relates to Glycine max (GLXMA). Description: Pre-emergence effects on crop plants. As to conditions: crop plant.
Description: as §4, §5, §6

The subject of series [10] is Zea Mays (ZEAMX). Kind of series: Pre-emergence effects on crop plants. As to conditions: crop plant.
Description: as §4, §5, §6

Series [11] deals with Lolium rigidum (LOLRI). Kind of series: Herbicidal pre-emergence action. Particulars: 320 g/ha, graded after ca. 3 weeks. Put shortly: (§7)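 Seeds sown in sandy loam and covered with soil; WP- or EC-formulated compounds applied to the covering soil surface as aqueous suspension/emulsion with 0.5% additive at 600 l water/ha, rates of 1280 g/ha or lower. Greenhouse growth; visual damage scored after ca. 3 weeks versus untreated controls (0–100%).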

Series [12] relates to Digitaria sanguinalis (DIGSA). Kind of series: Herbicidal pre-emergence action. Particulars: 320 g/ha, graded after ca. 3 weeks. The essentials:
as §7

The test system of series [13] is Avena fatua (AVEFA). Description: Herbicidal pre-emergence action. As to conditions: graded after ca. 3 weeks. Put shortly:
as §7

Series [14] deals with Echinochloa crus-galli (ECHCG). Description: Herbicidal pre-emergence action. As to conditions: graded after ca. 3 weeks. Put shortly: as §7
In series [15] the test system is Viola tricolor (VIOTR). Description: Herbicidal pre-emergence action. Particulars: 320 g/ha, graded after ca. 3 weeks. The essentials: as §7
Series [16] has as its system Lolium multiflorum (LOLMU). Kind of series: Herbicidal pre-emergence action. As to conditions: 1280 g/ha, graded after ca. 3 weeks. Put shortly: as §7
The subject of series [17] is Polygonum convolvulus (POLCO). Description: Herbicidal pre-emergence action. As to conditions: 1280 g/ha, graded after ca. 3 weeks. Put shortly:
as §7

The subject of series [18] is Alopecurus myosuroides (ALOMY). Description: Herbicidal pre-emergence action. As to conditions: graded after ca. 3 weeks. Put shortly:
as §7

Series [19] concerns Setaria viridis (SETVI). Kind of series: Herbicidal pre-emergence action. As to conditions: graded after ca. 3 weeks. Put shortly:
as §7

Each structure is given as a SMILES string.

As for `O=C(O)C1CCCN1C(=O)CC1CCC(=O)N1Cc1cccc(F)c1F` (racemic) [Example I-013], in series [1], the “Post-emergence activity against DIGSA” value is 80%. The “Post-emergence activity against AVEFA” value in series [2] (1280 g/ha) is on record as 80%. For the same compound, in series [3] (1280 g/ha), the “Post-emergence activity against ECHCG” value worked out at 80%. The “Post-emergence activity against ALOMY” value in series [4] (1280 g/ha) is recorded as 80%. Moreover, the “post-emergence activity against BRSNW” value in [5] is recorded as 0%. Also, the “post-emergence activity against GLXMA (crop damage)” value in [6] came out at 0%. Also, the “post-emergence activity against ZEAMX (crop damage)” value in [7] (320 g/ha) stood at 0%. Further, in series [8], the “pre-emergence activity against BRSNW (crop damage)” value came to 0%. Also, the “pre-emergence activity against GLXMA (crop damage)” value in [9] (80 g/ha) stood at 0%. In series [10] (320 g/ha), the “pre-emergence activity against ZEAMX (crop damage)” value is given as 0%. Further, the “Pre-emergence activity against LOLRI” value in [11] is reported as 80%. Further, the “Pre-emergence activity against DIGSA” value in series [12] turned out to be 90%. For the same compound, the “Pre-emergence activity against AVEFA” value in series [13] (1280 g/ha) is reported as 100%. The “Pre-emergence activity against ECHCG” value in series [14] (1280 g/ha) came to 90%. Also, the “Pre-emergence activity against VIOTR” value in [15] stood at 90%. Besides, the “Pre-emergence activity against LOLMU” value in series [16] is on record as 90%. Further, the “Pre-emergence activity against POLCO” value in [17] was determined as 90%. Moreover, the “Pre-emergence activity against ALOMY” value in series [18] (1280 g/ha) was 90%. For the same compound, in series [19] (1280 g/ha), the “Pre-emergence activity against SETVI” value is given as 90%.

`COC(=O)c1ccccc1NC(=O)CC1CCC(=O)N1Cc1cccc(F)c1F` (racemic) [Example I-080]: the “post-emergence activity against BRSNW” value in [5] was found to be 0%. Also, the “post-emergence activity against GLXMA (crop damage)” value in [6] is on record as 0%. Moreover, the “post-emergence activity against ZEAMX (crop damage)” value in [7] (320 g/ha) is 0%. Further, in [8], the “pre-emergence activity against BRSNW (crop damage)” value is 0%. Further, the “pre-emergence activity against GLXMA (crop damage)” value in series [9] (320 g/ha) is 0%. The “pre-emergence activity against ZEAMX (crop damage)” value in [10] (320 g/ha) was 0%. Besides, the “Pre-emergence activity against DIGSA” value in series [12] is listed as 80%. Besides, in [13] (320 g/ha), the “Pre-emergence activity against AVEFA” value is listed as 80%. In addition, the “Pre-emergence activity against SETVI” value in [19] (320 g/ha) amounted to 90%.

In the case of `O=C(O)CC1CCC(=O)N1Cc1cc(F)cc(F)c1F` (racemic) [Example I-201], in [1], the “Post-emergence activity against DIGSA” value came out at 90%. For the same compound, the “Post-emergence activity against AVEFA” value in [2] (320 g/ha) was determined as 100%. Also, in [3] (320 g/ha), the “Post-emergence activity against ECHCG” value is recorded as 90%. Also, the “Post-emergence activity against ALOMY” value in [4] (320 g/ha) came to 90%. In series [6], the “post-emergence activity against GLXMA (crop damage)” value is 0%. In series [7] (80 g/ha), the “post-emergence activity against ZEAMX (crop damage)” value is 0%. Also, the “pre-emergence activity against GLXMA (crop damage)” value in [9] (320 g/ha) was 0%. Besides, the “pre-emergence activity against ZEAMX (crop damage)” value in series [10] (80 g/ha) was 0%. Moreover, the “Pre-emergence activity against LOLRI” value in [11] stood at 80%. In addition, the “Pre-emergence activity against DIGSA” value in [12] came to 90%. In addition, the “Pre-emergence activity against AVEFA” value in series [13] (320 g/ha) came out at 100%. Further, the “Pre-emergence activity against ECHCG” value in [14] (320 g/ha) came out at 100%. Besides, the “Pre-emergence activity against ALOMY” value in series [18] (320 g/ha) came out at 100%. Also, the “Pre-emergence activity against SETVI” value in series [19] (320 g/ha) is reported as 100%.

Source of the values: patent publication US20240199542A1, “SUBSTITUTED PYRROLIDIN-2-ONES, SALTS THEREOF AND THEIR USE AS HERBICIDALLY ACTIVE SUBSTANCES” (Bayer Aktiengesellschaft, priority 2021, published 2024).
